Legend:
[1] = system: OCT-like uptake in L. salivarius biofilms; test: ASP+ fluorophore uptake (OCT-like) in L. salivarius biofilms; type: cell-based, Lactobacillus salivarius; conditions: for inhibition of ASP+ uptake: early and late biofilms
Experimental: (§1) At the start of the assay, 0.2 ml of stationary phase overnight bacterial growth was inoculated into 9.8 ml of pre-warmed MRS, thoroughly mixed, and 0.2 ml aliquots added to individual wells of Corning flat clear-bottomed 96 well microplates (product #3904, Corning, Inc., Corning, NY, USA). Plates were then placed into a 37° C. humidified incubator. Following static incubation for either 6 or 24 hours, plates were removed from the incubator and the well supernatants were gently removed leaving the bacterial biofilm intact on the bottom surface of the individual clear plate wells. Subsequently, the PMAT-specific fluorophore IDT307 (Molecular Devices) or the OCT-specific fluorophore ASP^+ (Sigma-Aldrich) dissolved in IMDM and pre-warmed to 37° C. was gently added to appropriate wells (added along the well side so as not to disturb the biofilm). The plate was immediately placed into a BioTek Synergy H1 reader (Winooski, VT, USA) and measured using Gen5 software at the time intervals shown in the FIGS. 4-7. All assays were done at 37° C. unless otherwise noted and reads were performed as bottom fluorescence in relative fluorescence units (RFU). For IDT307, the chemical and masking dye were supplied pre-measured and the amount of IMDM used as a diluent was the same as indicated for the use of HBSS. […] Drug Metab Dispos. 2015; 43(11):1773-80, herein incorporated by reference, with the minor modification that the fluorophore/masking dye combination were prepared as follows: 100 μl of a 2 mg ASP^+ stock solution per ml of distilled water was first added to 9.9 ml of IMDM and mixed, followed by the addition of 10 μl of a 10 mM Trypan blue solution. The excitation/emission wavelengths used for IDT307 and ASP^+, respectively, were 440 nm/520 nm and 475 nm/609 nm.
(§2) Plates were prepared as above in Example 4 and following 6 hours (FIGS. 8A and B for PMAT and OCT respectively) or 24 hours (FIGS. 8C and D for PMAT and OCT respectively) of incubation the media was gently removed and replaced with 100 μl of pre-warmed IMDM media with or without different concentrations of fluoxetine. The concentrations of fluoxetine were 0.3125 mM, 0.625 mM, 1.25 mM, or 2.5 mM. The plate was then incubated at 37° C. for 30 minutes. Following incubation, 100 μl of pre-warmed fluorophore was added to the appropriate wells. The plate was then immediate placed into the fluorescence reader and measured at 37° C.
(§3) Two other antidepressant drugs that are chemically unrelated to fluoxetine, duloxetine and amitriptyline, were tested for their action on PMAT- and OCT-like functionalities in Lactobacilli to determine if they may also be used as inhibitors. Cells were grown in 96-well plates for 24 hours to allow for biofilm formation as above. […] IDT307 or ASP^+ was then used to measure the effects of each antidepressant drug on the cells ability to take up the fluorophore.

[2] = system: PMAT-like uptake in L. reuteri; conditions: 2 mg/ml, 24 hour biofilm
Experimental: as §3

[3] = system: OCT-like uptake in L. reuteri; test: ASP+ fluorophore uptake (OCT-like) in L. reuteri; type: cell-based, Lactobacillus reuteri; conditions: for attenuation of ASP+ fluorophore uptake: 2 mg/ml, 24 hour biofilm
From the text: The fluorophore ASP^+[4-(4-(diethylamino)styryl)-N-methylpyridinium iodide] was obtained from Sigma Chemical Company (Sigma #D4318) and used as described in Duan et al., Drug Metabolism and Disposition, volume 43, pages 1773-1780, 2015 (herein incorporated by reference) with a slight modification in the ratio of ASP^+ and Trypan blue used.
To verify if OCT-like uptake was responsible for the influx of ASP^+ in Lactobacilli, L. reuteri was pre-treated with D-22, an OCT inhibitor. In brief, Lactobacilli reuteri (obtained from American Type Culture Collection, #23272) were grown overnight at 37° C. in an aerobic environment in flat-bottomed 96-well plates in MRS medium. Following overnight incubation, the medium in each well was carefully removed in order to not overtly disturb the biofilm and a final concentration of 20 μM D-22 dissolved in IMDM or control medium was added. The plate was then incubated for 20 minutes at 37° C. in an aerobic environment. Next, ASP^+ fluorophore dissolved in IMDM was added and the plate was then placed into a BioTek Synergy H1 plate reader at 37° C. and read continuously for a total of 6 hours.
as §3

[4] = system: PMAT-like uptake in L. salivarius biofilms; test: IDT307 fluorophore uptake (PMAT-like) in L. salivarius biofilms; type: cell-based, Lactobacillus salivarius; conditions: for attenuation of IDT307 fluorophore uptake: 1 mg/ml, 24 hour biofilm; for uptake of IDT307-associated fluorescence: 100 μM; for inhibition of IDT307 uptake: early and late biofilms
From the text: For measurement of PMAT-like function, the IDT307 fluorophore-based Neurotransmitter Uptake Assay Kit (product #R8173, Molecular Devices, Sunnyvale, CA, USA) was used with modification. As it is intended for studies with mammalian cells, the kit recommends the use of phenol red-free Hank's Balanced Salt Solution (HBSS). Phenol red-free Iscove's Modified Dulbecco's Medium (IMDM; product #21056-023, Life Technologies, Carlsbad, CA, USA) was substituted for HBSS. […] IMDM was selected as it is a nutrient-rich, protein-free medium used in tissue culture that allows for robust growth of a wide variety of bacterial species in the absence of any protein additives common to most microbiology media.
as §1, §2, §3

[5] = molecular target: T1, recombinant PMAT (Homo sapiens, UniProt Q7RTT9); conditions: 20 μM, HEK293 embryonic kidney cells; cited from earlier work
T1 construct: host or cells: HEK293 embryonic kidney cells (transfected, in the earlier report)
T1 sequence (Q7RTT9 1-530): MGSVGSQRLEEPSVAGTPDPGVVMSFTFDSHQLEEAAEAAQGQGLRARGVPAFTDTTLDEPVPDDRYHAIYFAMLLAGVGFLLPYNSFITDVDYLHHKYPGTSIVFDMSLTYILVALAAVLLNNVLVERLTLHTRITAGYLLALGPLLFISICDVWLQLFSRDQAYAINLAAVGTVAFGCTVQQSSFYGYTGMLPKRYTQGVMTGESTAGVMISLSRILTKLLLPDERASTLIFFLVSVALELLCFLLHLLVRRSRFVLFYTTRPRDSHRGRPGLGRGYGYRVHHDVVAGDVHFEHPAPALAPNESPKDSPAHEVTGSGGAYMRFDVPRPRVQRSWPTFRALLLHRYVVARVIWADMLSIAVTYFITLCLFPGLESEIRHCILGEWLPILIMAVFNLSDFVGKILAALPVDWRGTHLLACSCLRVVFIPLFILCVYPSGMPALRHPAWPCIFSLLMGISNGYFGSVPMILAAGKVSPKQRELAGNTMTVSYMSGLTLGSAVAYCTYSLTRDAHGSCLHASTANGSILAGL

[6] = system: recombinant OCTs; conditions: 20 μM, HEK293 embryonic kidney cells; cited from earlier work
[7] = system: microbial communities of mice; test: In vivo administration of fluoxetine, 16S rRNA sequencing of microbial communities; conditions: male mice, oral, daily for 28 days
Experimental: Fluoxetine was administered on a daily basis by the oral route to male mice for 28 days in order to determine if any modulation in microbial communities could be obtained.
To classify the microbial communities, the genomes of isolated bacteria were sequenced and compared. Genomic DNA isolation was obtained using the PowerSoil DNA Isolation Kit (MoBio, Carlsbad, CA) on cecal and fecal samples. Assays were performed in accordance with the manufacturer's protocol with the following modifications: samples were incubated at 70° C. for 10 minutes immediately after addition of the C1 solution and the initial vortex step was extended to 20 minutes to thoroughly homogenize the samples. The purified bacterial genomic DNA extracts were quantified using a Qubit 2.0 Fluorometer (Life Technologies, Carlsbad, CA), and stored at −20° C. in 10 mM Tris buffer. For Illumina sequencing, bacterial genomic DNA was amplified using the Earth Microbiome Project barcoded primer set, adapted for the Illumina HiSeq2000 and MiSeq by adding nine extra bases in the adapter region of the forward amplification primer that support paired-end sequencing. The V4 region of the 16S rRNA gene (Illumina, 515F-806R) was amplified with region-specific primers that included the Illumina flowcell adapter sequences. The reverse amplification primer also contained a twelve base barcode sequence that supported pooling of up to 2,167 different samples in each lane. Each 25 μl PCR reaction contained 12 µl of MoBio PCR Water (Certified DNA-Free), 10 μl of 5 Prime HotMasterMix (1×), 1 μl of Forward Primer ([…], […]), 1 μl Golay Barcode Tagged Reverse Primer (5 μM concentration, […]), and […]. The conditions for PCR were as follows: 94° C. for 3 minutes to denature the DNA, with 35 cycles at 94° C. for 45 s, 50° C. for 60 s, and 72° C. for 90 s; with a final extension of 10 min at 72° C. to ensure complete amplification. The PCR amplicons were quantified using PicoGreen (Invitrogen) and a plate reader. Once quantified, different volumes of each of the products were pooled into a single tube so that each amplicon was represented equally. This pool was then cleaned up using UltraClean® PCR Clean-Up Kit (MoBIO), and quantified using the Qubit (Invitrogen). After quantification, the molarity of the pool was determined and diluted down to 2 nM, denatured, and then diluted to a final concentration of […] with a 10% PhiX spike for sequencing on the Illumina MiSeq.
In total, 60 fecal samples, representing 20 samples for each time point (day 0, 15, and 28) with 10 samples for the control and treatment groups, respectively, were used for 16S rRNA gene amplicon sequencing using Illumina MiSeq with 151 bp paired-end sequencing technology. 16S rRNA gene PCR and library preparation and sequencing were completed at the Environmental Sample Preparation and Sequencing Facility at Argonne National Laboratory. Sequence analysis was performed using mothur version 1.39.3 following the mothur MiSeq SOP available at the mothur website. Briefly, contigs were joined with “make.contigs”, reads longer than 250 bp, harboring any ambiguous bases or with more than 8 consecutive homopolymers were excluded using “screen.seqs”. Reads were aligned to the SILVA NR128 reference database. Chimeric sequences were removed with “chimera.uchime” and the remaining reads were clustered into operational taxonomic units (OTUs) using a 97% similarity threshold and taxonomy was assigned to OTUs using the SILVA NR 128 reference database. […] For determination of differences between groups on community level, analysis of molecular variance (AMOVA) and analysis of similarity (ANOSIM) implemented in mothur were used. Heatmaps were generated with JColorGrid. For better taxonomic classification, the OTUs were searched against the 16S rRNA gene sequences of the Mouse Intestinal Bacterial Collection isolates (miBC) using BlastN.

[8] = biofilms established over 24 hours
[9] = concentrations higher than 0.625 mM

With `CNCC[C@H](Oc1cccc2ccccc12)c1cccs1` [duloxetine] as the compound, how does the “attenuation of ASP+ fluorophore uptake” value ([1]; 1 mg/ml, 24 hour biofilm) read?
The value was “some attenuation”.

And the “attenuation of IDT307 fluorophore uptake” value [2]?
The value was “larger attenuation of fluorophore uptake”.

What about the “attenuation of ASP+ fluorophore uptake” value [3] of the same compound?
The value was “larger attenuation of fluorophore uptake”.

What about the “attenuation of IDT307 fluorophore uptake” value [4] of the same compound?
Its value is “some attenuation”.

What does the source list for `CN(C)c1ccc(-c2cc[n+](C)cc2)cc1.[I-]` [IDT307, 4-[p-(Dimethylamino)phenyl]-1-methylpyridinium iodide]?
time of intracellular fluorescence decay after maximum ([4]; 6 hour biofilms, 37° C.): 2 to 3 h; time to maximum fluorescence intensity ([4]; 6 hour biofilms, 37° C.): < 60 min; residence time of probe in biofilm [4, 8]: > 6 h

Which “serotonin uptake through recombinant PMAT” value [5] does the source give for `CCN1/C(=C/c2ccc3ccccc3[n+]2CC)C=Cc2ccccc21.[I-]` [decynium-22] here?
The value was “block serotonin uptake”.

And the “serotonin uptake through recombinant OCTs” value [6]?
Its value is “block serotonin uptake”.

What about the “peak increase in ASP+ uptake” value ([1]; 20 μM, early (6 hour) biofilms) of the same compound?
The value was “blunted”.

What about the “ability of the ASP+ fluorophore to enter into the cells (fluorescence)” value ([3]; 20 μM, 20 min pre-incubation, overnight biofilm, read 6 hours, all time points) of the same compound?
The value was “reduced the ability of the ASP^+ fluorophore to enter into the cells”.

And the “peak increase in IDT307 uptake” value ([4]; 20 μM, early (6 hour) biofilms)?
Its value is “blunted”.

Which “time of intracellular fluorescence decay after maximum” value ([1]; 6 hour biofilms, 37° C.) does the source give for `CCN(CC)c1ccc(C=Cc2cc[n+](C)cc2)cc1.[I-]` [ASP^+, 4-(4-(diethylamino)styryl)-N-methylpyridinium iodide] here?
The value was 2 to 3 h.

What about the “time to maximum fluorescence intensity” value ([1]; 6 hour biofilms, 37° C.) of the same compound?
The value was under 60 min.

What about the “residence time of probe in biofilm” value [1, 8] of the same compound?
The value was over 6 h.

For `NCCc1c[nH]c2ccc(O)cc12` [serotonin], which “uptake of IDT307-associated fluorescence” value ([4]; 6 hour biofilms) is on record?
Its value is “markedly inhibited”.

For `NC[C@H](O)c1ccc(O)c(O)c1` [NE, norepinephrine], which “uptake of IDT307-associated fluorescence” value ([4]; 6 hour biofilms) is on record?
The value was “markedly inhibited”.

Which “attenuation of ASP+ fluorophore uptake” value [3] does the source give for `CN(C)CCC=C1c2ccccc2CCc2ccccc21` [Amitriptyline, amitriptyline] here?
The value was “much stronger inhibitory effect”.

What about the “attenuation of IDT307 fluorophore uptake” value [4] of the same compound?
Its value is “much stronger inhibitory effect”.

With `O=NO` [sodium nitrite] as the compound, how does the “uptake of IDT307-associated fluorescence” value ([4]; 6 hour biofilms) read?
Its value is “inhibited the rapid rise in IDT307-associated fluorescence”.

For `CNCCC(Oc1ccc(C(F)(F)F)cc1)c1ccccc1` (stereo not drawn) [fluoxetine], which “inhibition of ASP+ uptake” value ([1]; concentrations below 0.625 mM) is on record?
The value was “concentration-dependent inhibition”.

And the “inhibition of ASP+ uptake” value [1, 9]?
Its value is “total inhibition”.

And the “overall effect on microbial communities” value [7]?
The value was “shift of microbial communities towards dysbiosis”.

What about the “decrease of Lactobacillus OTU17 abundance under treatment” value ([7]; fecal samples) of the same compound?
Its value is 7.4 fold.

What about the “number of OTUs different between control and fluoxetine group” value ([7]; fecal samples) of the same compound?
The value was 121 OTUs.

What about the “species richness and diversity estimators vs control group” value ([7]; fecal samples) of the same compound?
The value was “No statistical significant differences”.

And the “abundance of Firmicutes relative to Bacteroidetes” value ([7]; phylum level)?
The value was “trended (p=0.08) to be more abundant than Bacteroidetes”.

And the “whole community level comparison with control (AMOVA and ANOSIM)” value ([7]; p=0.02 and p=0.05)?
Its value is “statistically significant differences”.

What about the “inhibition of IDT307 uptake” value ([4]; concentrations below 0.625 mM) of the same compound?
Its value is “concentration-dependent inhibition”.

What about the “inhibition of IDT307 uptake” value [4, 9] of the same compound?
The value was “total inhibition”.

Source: US12152270B2, “Neurotransmitter transport in probiotics” (Iowa State University Research Foundation, Inc., priority 2017, dated 2024)
